In one test the target is T1, PI3Kα (Homo sapiens, UniProt P42336).
T1 construct: purchased Carna Biosciences
Description: In vitro kinase inhibition assay for PI3K (ADP-Glo), PI3Kα. The format is biochemical. The conditions noted are these: for IC50: recombinant kinase, ADP-Glo, mean of two independent experiments; for Fold Selectivity α/δ: ratio of IC50 PI3Kα to IC50 PI3Kδ. The procedure: (§1) Tested compounds were dissolved in 100% DMSO, and obtained solutions were serially diluted in 1× reaction buffer. The recombinant kinase solution was diluted in a reaction mixture comprising 5× reaction buffer, respective compound solution (1 mM sodium diacetate 4,5-bisphosphate phosphatidylinositol (PIP2) solution in 40 mM Tris buffer), and water. In a 96-wells plate, 5 μL of compound solutions and 15 μL of the kinase solution in the reaction mixture were added per well. To initiate the interaction of chemical compounds to be tested with the enzyme, the plate was incubated for 10 min at a suitable temperature in a plate thermostat with orbital shaking at 600 rpm. Negative control wells contained all the above reagents except tested compound and kinase, and positive control wells contained all the above reagents except tested compounds. The enzymatic reaction was initiated by adding 5 μL of 150 μM ATP solution. Subsequently, the plate was incubated for 1 h at 25 or 30 °C (depending on the PI3K isoform tested) in a plate thermostat with orbital shaking of the plate contents at 600 rpm. The reaction conditions are combined in the table below (Table 6).
(§2) Detection of ADP formed in the enzymatic reaction was then performed using ADP-Glo Kinase Assay™ (Promega, Madison, WI, USA). To the wells of a 96-well plate, 25 μL of ADP-Glo Reagent™ was added, and the plate was incubated for 40 min at 25 °C in a plate thermostat with orbital shaking at 600 rpm. Then 50 μL of Kinase Detection Reagent were added to each well, and the plate was incubated for 40 min at 25 °C in a plate thermostat with orbital shaking at 600 rpm. Once the incubation was complete, the luminescence intensity was measured using a Victor Light luminometer (Perkin Elmer, Inc., Waltham, MA, USA). IC50 values were determined based on luminescence intensity measured in wells containing tested compounds at different concentrations in relation to control wells. These values were calculated with Graph Pad 5.03 software by fitting the curve using non-linear regression. Each compound was tested at least in quadruplicates (4 wells) on two 96-well plates utilizing at least 4 wells for each control. Averaged results of inhibition activity respective to specific isoforms of PI3K kinases for tested compounds are presented as IC50 values in Table 1, Table 2, Table 3 and Table 4.

The target in a further test is T2, PI3Kδ (Homo sapiens, UniProt O00329).
T2 construct: purchased Merck Millipore
T2 sequence (P27986 whole entry): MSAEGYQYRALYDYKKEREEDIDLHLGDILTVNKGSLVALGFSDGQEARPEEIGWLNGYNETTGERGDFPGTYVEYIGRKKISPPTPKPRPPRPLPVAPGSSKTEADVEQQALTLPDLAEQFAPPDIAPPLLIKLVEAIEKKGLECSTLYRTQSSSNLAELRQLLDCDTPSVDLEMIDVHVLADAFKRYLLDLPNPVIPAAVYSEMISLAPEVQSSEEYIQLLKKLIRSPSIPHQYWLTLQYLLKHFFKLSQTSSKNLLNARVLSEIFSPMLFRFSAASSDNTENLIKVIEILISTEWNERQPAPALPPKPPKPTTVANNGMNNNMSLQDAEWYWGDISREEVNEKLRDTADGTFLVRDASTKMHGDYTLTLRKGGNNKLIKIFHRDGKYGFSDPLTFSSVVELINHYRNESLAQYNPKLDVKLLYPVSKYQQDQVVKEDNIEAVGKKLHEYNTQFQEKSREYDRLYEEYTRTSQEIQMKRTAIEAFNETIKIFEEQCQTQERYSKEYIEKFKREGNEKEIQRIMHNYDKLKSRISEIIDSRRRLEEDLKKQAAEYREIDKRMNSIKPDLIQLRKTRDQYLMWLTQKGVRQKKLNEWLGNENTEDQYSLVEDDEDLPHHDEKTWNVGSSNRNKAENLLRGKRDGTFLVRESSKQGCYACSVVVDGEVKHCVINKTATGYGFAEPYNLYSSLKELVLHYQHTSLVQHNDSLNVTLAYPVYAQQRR
T2 sequence (O00329 whole entry): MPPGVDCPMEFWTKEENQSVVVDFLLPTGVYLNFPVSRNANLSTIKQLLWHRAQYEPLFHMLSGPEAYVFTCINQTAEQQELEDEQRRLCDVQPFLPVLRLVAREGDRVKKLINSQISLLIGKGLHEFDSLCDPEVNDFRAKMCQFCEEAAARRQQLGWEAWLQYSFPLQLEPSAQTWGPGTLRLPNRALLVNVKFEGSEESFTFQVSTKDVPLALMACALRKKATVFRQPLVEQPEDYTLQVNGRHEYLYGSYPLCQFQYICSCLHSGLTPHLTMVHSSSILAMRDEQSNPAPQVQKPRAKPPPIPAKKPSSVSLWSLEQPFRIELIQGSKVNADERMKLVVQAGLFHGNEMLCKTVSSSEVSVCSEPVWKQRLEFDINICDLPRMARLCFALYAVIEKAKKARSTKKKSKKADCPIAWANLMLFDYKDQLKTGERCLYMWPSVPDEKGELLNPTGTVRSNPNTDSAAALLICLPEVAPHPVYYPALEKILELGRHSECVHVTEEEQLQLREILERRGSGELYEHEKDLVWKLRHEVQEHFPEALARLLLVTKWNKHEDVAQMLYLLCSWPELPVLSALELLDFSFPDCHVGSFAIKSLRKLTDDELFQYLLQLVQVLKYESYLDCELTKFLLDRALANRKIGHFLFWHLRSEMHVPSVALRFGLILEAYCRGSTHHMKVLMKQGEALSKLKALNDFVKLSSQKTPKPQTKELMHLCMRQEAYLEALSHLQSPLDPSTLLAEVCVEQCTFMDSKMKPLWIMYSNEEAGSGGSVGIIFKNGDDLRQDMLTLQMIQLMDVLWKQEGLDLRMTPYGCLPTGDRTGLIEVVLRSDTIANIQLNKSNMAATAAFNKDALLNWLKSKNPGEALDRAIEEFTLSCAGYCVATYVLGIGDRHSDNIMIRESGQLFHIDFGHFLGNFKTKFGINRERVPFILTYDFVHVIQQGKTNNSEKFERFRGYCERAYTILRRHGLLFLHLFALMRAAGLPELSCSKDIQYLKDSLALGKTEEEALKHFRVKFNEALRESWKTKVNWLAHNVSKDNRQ
Description: In vitro kinase inhibition assay for PI3K (ADP-Glo), PI3Kδ. The format is biochemical. The conditions noted are these: recombinant kinase, mean of two independent experiments. The procedure: as §1, with “The enzymatic reaction was initiated by adding 5 μL of 150 μM ATP solution.” left out
as §2, with “These values were calculated with Graph Pad 5.03 software by fitting the curve using non-linear regression.” left out, “control.” for “control. Averaged results of inhibition activity respective to specific isoforms of PI3K kinases for tested compounds are presented as IC50 values in Table 1, Table 2, Table 3 and Table 4.”

Molecules are shown by their SMILES. Where two headings read alike, the source gives them in different places.

T1 sequence (P42336 whole entry): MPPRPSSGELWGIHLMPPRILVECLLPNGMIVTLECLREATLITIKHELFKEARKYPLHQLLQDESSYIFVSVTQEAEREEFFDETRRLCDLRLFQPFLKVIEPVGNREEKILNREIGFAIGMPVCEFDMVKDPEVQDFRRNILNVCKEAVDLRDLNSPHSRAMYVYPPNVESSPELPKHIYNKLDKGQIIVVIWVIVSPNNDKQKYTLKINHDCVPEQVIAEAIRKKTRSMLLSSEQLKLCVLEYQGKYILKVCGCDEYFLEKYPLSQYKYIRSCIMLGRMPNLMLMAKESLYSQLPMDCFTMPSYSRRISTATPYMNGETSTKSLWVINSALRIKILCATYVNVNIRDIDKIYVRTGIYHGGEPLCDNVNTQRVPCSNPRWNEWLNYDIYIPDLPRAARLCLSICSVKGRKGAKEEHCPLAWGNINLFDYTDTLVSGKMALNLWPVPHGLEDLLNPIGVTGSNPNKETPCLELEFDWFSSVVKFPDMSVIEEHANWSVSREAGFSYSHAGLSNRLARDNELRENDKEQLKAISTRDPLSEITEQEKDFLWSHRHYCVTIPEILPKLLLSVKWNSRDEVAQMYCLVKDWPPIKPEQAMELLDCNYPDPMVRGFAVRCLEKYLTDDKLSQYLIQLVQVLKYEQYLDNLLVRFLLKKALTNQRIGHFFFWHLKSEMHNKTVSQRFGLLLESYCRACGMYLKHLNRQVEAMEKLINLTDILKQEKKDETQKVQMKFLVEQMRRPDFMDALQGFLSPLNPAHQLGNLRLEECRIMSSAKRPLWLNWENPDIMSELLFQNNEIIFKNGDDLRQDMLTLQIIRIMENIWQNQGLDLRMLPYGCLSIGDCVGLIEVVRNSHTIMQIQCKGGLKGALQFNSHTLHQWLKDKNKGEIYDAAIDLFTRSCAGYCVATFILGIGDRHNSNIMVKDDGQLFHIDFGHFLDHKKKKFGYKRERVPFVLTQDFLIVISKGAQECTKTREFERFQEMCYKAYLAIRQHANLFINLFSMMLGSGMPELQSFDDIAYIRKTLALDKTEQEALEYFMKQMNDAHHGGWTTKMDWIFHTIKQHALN
T1 sequence (P27986 whole entry partner): as the sequence (P27986 whole entry) above

Take `Cc1cc(Nc2cc(N3CCOCC3)n3nc(C)cc3n2)[nH]n1` [Compound 9, 3-methyl-N-[2-methyl-7-(morpholin-4-yl)pyrazolo[1,5-a]pyrimidin-5-yl]-1H-pyrazol-5-amine]: the IC50 (as a rule, the concentration needed to halve the response being measured) on PI3Kα (IC50 PI3Kα) is above 60 µM; at PI3Kδ (read-out: IC50 PI3Kδ), 43.6 µM. Also, at PI3Kα, the “Fold Selectivity α/δ” value is listed as above 1.4.
In the case of `c1cc(-c2cc(N3CCOCC3)n3nc(CN4CC5CC4CN5C4COC4)cc3n2)c2cc[nH]c2c1` [Compound 43, 5-(1H-indol-4-yl)-2-(((1S, 4S)-2-(oxetan-3-yl)-2,5-diaza-bicyclo [2.2.1]hept-2-yl)methyl)-7-(morpholin-4-yl)pyrazolo[1,5-a]pyrimidine], the IC50 at PI3Kα (IC50 PI3K α) was 22.6 µM; at PI3Kδ (read-out: IC50 PI3K δ) it was 0.071 µM. On PI3Kα, the “Fold Selectivity α/δ” value amounted to 318.
In the case of `CCc1nc2ccccc2n1-c1cc(N2CCOCC2)n2nc(C)cc2n1` [Compound 6, 2-methyl-5-(2-ethylbenzimidazol-1-yl)-7-(morpholin-4-yl)pyrazolo[1,5-a]pyrimidine], the IC50 on PI3Kα (IC50 PI3Kα) amounted to 25.9 µM; on PI3Kδ (read-out: IC50 PI3Kδ), 2.3 µM. In addition, on PI3Kα, the “Fold Selectivity α/δ” value is given as 11.
Regarding `O=S1(=O)CCN(Cc2cc3nc(-c4cccc5[nH]ccc45)cc(N4CCOCC4)n3n2)CC1` [Compound 27, 2-((1,1-dioxothiomorpholin-1-yl)-methyl)-5-(1H-indol-4-yl)-7-(morpholin-4-yl)pyrazolo[1,5-a]pyrimidine], the results for the half-inhibitory concentration (IC50) at PI3Kα (IC50 PI3K α) and at PI3Kδ (read-out: IC50 PI3K δ) were 8.65 µM and 0.266 µM, respectively. The “Fold Selectivity α/δ” value on PI3Kα turned out to be 33.
In the same order, the values of `c1cc(-c2cc(N3CCOCC3)n3nc(CN4CCN(CC5CC5)CC4)cc3n2)c2cc[nH]c2c1` [Compound 45, 2-((4-(cyclopropylmethyl)piperazin-1-yl)methyl)-5-(1H-indol-4-yl)-7-(morpholin-4-yl)pyrazolo[1,5-a]pyrimidine] are 6.32 µM, 0.029 µM and 218.
`Cc1cc2nc(-c3cccc4[nH]ccc34)cc(N3CCOCC3)n2n1` [Compound 13, 2-methyl-7-(morpholin-4-yl)-5-(1H-indole-4-yl)pyrazolo[1,5-a]pyrimidine]: the IC50 on PI3Kα (IC50 PI3Kα) turned out to be 23.5 µM; at PI3Kδ (read-out: IC50 PI3Kδ), 0.772 µM. Moreover, the “Fold Selectivity α/δ” value at PI3Kα was found to be 30.
On to `c1cc(-c2cc(N3CCOCC3)n3nc(CN4CCOCC4)cc3n2)c2cc[nH]c2c1` [Compound 28, 5-(1H-indol-4-yl)-7-(morpholin-4-yl)-2-((morpholin-4-yl)methyl)pyrazolo[1,5-a]pyrimidine], for which the IC50 at PI3Kδ (read-out: IC50 PI3K δ) was found to be 1.07 µM.
Still for that read-out and setting: the same measure for `O=C(Nc1ccccc1)NC1CCN(Cc2cc3nc(-c4cccc5[nH]ccc45)cc(N4CCOCC4)n3n2)CC1` [Compound 31, 1-phenyl-3-(1-((5-(1H-indol-4-yl)-7-(morpholin-4-yl)pyrazolo[1,5-a]pyrimidin-2-yl)methyl)piperidin-4-yl)urea]: 0.559 µM.
Regarding `CS(=O)(=O)N1CCN(Cc2cc3nc(-c4cccc5[nH]ccc45)cc(N4CCOCC4)n3n2)CC1` [Compound 23, 5-(1H-indol-4-yl)-2-((4-(methyl-sulphonyl)piperazin-1-yl)methyl)-7-(morpholin-4-yl)pyrazolo[1,5-a]pyrimidine], the IC50 was 2.35 µM at PI3Kα (IC50 PI3K α), 2.35 µM on PI3Kα (IC50 PI3Kα), 0.402 µM on PI3Kδ (read-out: IC50 PI3K δ) and 0.4 µM on PI3Kδ (read-out: IC50 PI3Kδ). Also, the “Fold Selectivity α/δ” value on PI3Kα is 5.8.
As for `O[C@H]1CCN(Cc2cc3nc(-c4cccc5[nH]ccc45)cc(N4CCOCC4)n3n2)C1` [Compound 26], the IC50 at PI3Kδ (read-out: IC50 PI3K δ) turned out to be 2.21 µM.
Take `CN1CCN(Cc2cc3nc(-c4cccc5[nH]ccc45)cc(N4CCOCC4)n3n2)CC1` [Compound 33, 5-(1H-indol-4-yl)-2-((4-methyl-piperazin-1-yl)methyl)-7-(morpholin-4-yl)pyrazolo[1,5-a]pyrimidine]: the IC50 on PI3Kα (IC50 PI3K α) stood at 42.4 µM; on PI3Kδ (read-out: IC50 PI3K δ) it was 0.193 µM. Moreover, on PI3Kα, the “Fold Selectivity α/δ” value amounted to 220.
In the case of `O[C@@H]1CCN(Cc2cc3nc(-c4cccc5[nH]ccc45)cc(N4CCOCC4)n3n2)C1` [Compound 25], the IC50 on PI3Kδ (read-out: IC50 PI3K δ) stood at 1.99 µM.

Source of the values: PMC9412374, “Design, Synthesis, and Development of pyrazolo[1,5-a]pyrimidine Derivatives as a Novel Series of Selective PI3Kδ Inhibitors: Part I—Indole Derivatives” (Pharmaceuticals, 2022).
